Tests used:
[1] = target: FXa (Homo sapiens, UniProt P00742); test: Related protease inhibition: FXa, fluorogenic substrate; format: biochemical; conditions: fluorogenic substrate at Km, 25° C.; H1-H3 = % activity at 40 μM
Protocol: Human serine protease enzyme Plasma Kallikrein, KLK1, FXa, Plasmin, Thrombin and Trypsin were assayed for enzymatic activity using an appropriate fluorogenic substrate at Km concentration, FXIa at fixed substrate concentration of 100 μM and various concentrations of the test compound.

[2] = target: T1, Human Factor XIIa (hFXIIa) (Homo sapiens, UniProt P00748); test: Determination of Human Factor XIIa (hFXIIa) inhibition, fluorogenic substrate IC50 assay; format: biochemical; conditions: fluorogenic substrate H-DPro-Phe-Arg-AFC at Km, 25° C., read-out: Human FXIIa IC50
T1 construct: purchased Enzyme Research Laboratories
T1 sequence (P00748 373-615 limits assumed): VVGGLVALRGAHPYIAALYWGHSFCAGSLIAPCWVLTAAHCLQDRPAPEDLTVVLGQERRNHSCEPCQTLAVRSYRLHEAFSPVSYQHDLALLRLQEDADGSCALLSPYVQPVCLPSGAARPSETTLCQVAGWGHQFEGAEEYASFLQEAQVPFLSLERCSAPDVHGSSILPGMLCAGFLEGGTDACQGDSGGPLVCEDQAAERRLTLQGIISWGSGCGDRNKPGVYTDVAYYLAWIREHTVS
T1 sequence (P00748 20-372 partner limits assumed): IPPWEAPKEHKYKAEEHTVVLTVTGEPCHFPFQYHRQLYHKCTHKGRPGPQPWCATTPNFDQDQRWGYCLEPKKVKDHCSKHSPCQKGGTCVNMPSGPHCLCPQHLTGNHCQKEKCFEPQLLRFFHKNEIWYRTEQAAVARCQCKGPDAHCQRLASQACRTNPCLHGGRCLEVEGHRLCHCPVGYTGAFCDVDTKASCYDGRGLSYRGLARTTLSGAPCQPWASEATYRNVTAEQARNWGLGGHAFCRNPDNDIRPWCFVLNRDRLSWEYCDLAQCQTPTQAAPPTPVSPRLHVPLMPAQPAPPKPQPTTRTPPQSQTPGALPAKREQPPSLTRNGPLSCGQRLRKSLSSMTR
Protocol: Determination of Human Factor XIIa (hFXIIa) inhibition
The Km for the cleavage of the substrate by hFXIIa was determined by standard transformation of the Michaelis-Menten equation, with subsequent inhibition assays performed at substrate Km concentration.

Chain of FXa (P00742 235-488 limits assumed): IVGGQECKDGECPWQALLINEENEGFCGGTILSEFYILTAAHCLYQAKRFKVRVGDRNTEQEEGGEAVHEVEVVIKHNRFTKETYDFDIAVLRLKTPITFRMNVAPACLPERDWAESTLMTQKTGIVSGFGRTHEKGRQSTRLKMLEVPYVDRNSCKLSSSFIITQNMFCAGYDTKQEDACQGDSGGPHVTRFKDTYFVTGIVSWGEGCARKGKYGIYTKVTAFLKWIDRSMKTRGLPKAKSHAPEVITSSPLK
Chain of FXa (P00742 41-179 partner limits assumed): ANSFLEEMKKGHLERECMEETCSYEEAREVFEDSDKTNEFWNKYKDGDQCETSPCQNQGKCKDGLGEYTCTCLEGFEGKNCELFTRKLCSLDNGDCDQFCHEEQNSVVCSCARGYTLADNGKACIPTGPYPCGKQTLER

Compound | IC50 [1] [nM] | IC50 [2] [nM]
CCNC(=O)c1nn(-c2cc(Cl)ccc2F)c2c1CCN(c1ccc3c(c1)C(=O)N(C)CC3)C2=O [Example 2030, 1-(5-chloro-2-fluorophenyl)-N-ethyl-6-(2-methyl-1-oxo-1,2,3,4-tetrahydroisoquinolin-7-yl)-7-oxo-4,5,6,7-tetrahydro-1H-pyrazolo[3,4-c]pyridine-3-carboxamide] | 10000 to 40000 | 3000 to 10000
CCNC(=O)c1nn(-c2cccc(C)c2F)c2c1CCN(c1ccc3c(c1)C(=O)N(C)CC3)C2=O [Example 2032, N-ethyl-1-(2-fluoro-3-methylphenyl)-6-(2-methyl-1-oxo-1,2,3,4-tetrahydroisoquinolin-7-yl)-7-oxo-4,5,6,7-tetrahydro-1H-pyrazolo[3,4-c]pyridine-3-carboxamide] | > 40000 | 300 to 1000
CCNC(=O)c1nn(-c2cc(Cl)cc(CO)c2)c2c1CCN(c1ccc3c(c1)C(=O)N(C)CC3)C2=O [Example 2033, 1-(3-chloro-5-(hydroxymethyl)phenyl)-N-ethyl-6-(2-methyl-1-oxo-1,2,3,4-tetrahydroisoquinolin-7-yl)-7-oxo-4,5,6,7-tetrahydro-1H-pyrazolo[3,4-c]pyridine-3-carboxamide] | > 40000 | 300 to 1000
CCNC(=O)c1nn(-c2cc(C)ccn2)c2c1CCN(c1ccc3c(c1)C(=O)N(C)CC3)C2=O [Example 2035, N-ethyl-6-(2-methyl-1-oxo-1,2,3,4-tetrahydroisoquinolin-7-yl)-1-(4-methylpyridin-2-yl)-7-oxo-4,5,6,7-tetrahydro-1H-pyrazolo[3,4-c]pyridine-3-carboxamide] | 10000 to 40000 | 3000 to 10000
CCNC(=O)c1nn(-c2cccc(Cl)c2C)c2c1CCN(c1ccc3c(c1)C(=O)N(C)CC3)C2=O [Example 2036, 1-(3-chloro-2-methylphenyl)-N-ethyl-6-(2-methyl-1-oxo-1,2,3,4-tetrahydroisoquinolin-7-yl)-7-oxo-4,5,6,7-tetrahydro-1H-pyrazolo[3,4-c]pyridine-3-carboxamide] | > 40000 | 1000 to 3000
Cc1cc(CNC(=O)c2nn(-c3cccc(Cl)c3F)c3c2CCN(c2ccc4c(c2)C(=O)N(C)CC4)C3=O)n[nH]1 [Example 2040, 1-(3-chloro-2-fluorophenyl)-6-(2-methyl-1-oxo-1,2,3,4-tetrahydroisoquinolin-7-yl)-N-((5-methyl-1H-pyrazol-3-yl)methyl)-7-oxo-4,5,6,7-tetrahydro-1H-pyrazolo[3,4-c]pyridine-3-carboxamide] | 10000 to 40000 | 10 to 100
Cc1nc2c(C(=O)NCC3CC3)nn(-c3cccc(Cl)c3)c2c(=O)n1-c1ccc2c(c1)CN(CCO)CC2 [Example 3003, 1-(3-chlorophenyl)-N-(cyclopropylmethyl)-6-(2-(2-hydroxyethyl)-1,2,3,4-tetrahydroisoquinolin-7-yl)-5-methyl-7-oxo-6,7-dihydro-1H-pyrazolo[4,3-d]pyrimidine-3-carboxamide] | > 40000 | 100 to 300
Cc1nc2c(C(=O)NCC3CC3)nn(-c3cccc(Cl)c3)c2c(=O)n1-c1ccc2c(c1)CN(C)CC2 [Example 3004, 1-(3-chlorophenyl)-N-(cyclopropylmethyl)-5-methyl-6-(2-methyl-1,2,3,4-tetrahydroisoquinolin-7-yl)-7-oxo-6,7-dihydro-1H-pyrazolo[4,3-d]pyrimidine-3-carboxamide] | 3000 to 10000 | 100 to 300
Cc1cn(C)nc1CNC(=O)c1nn(-c2cccc(Cl)c2)c2c(=O)n(-c3ccc4c(c3)CN(CCO)CC4)c(C)nc12 [Example 3005, 1-(3-Chlorophenyl)-N-[(1,4-dimethylpyrazol-3-yl)methyl]-6-[2-(2-hydroxyethyl)-3,4-dihydro-1H-isoquinolin-7-yl]-5-methyl-7-oxo-pyrazolo[4,3-d]pyrimidine-3-carboxamide] | 10000 to 40000 | 10 to 100
Cc1cn(C)nc1CNC(=O)c1nn(-c2cccc(Cl)c2)c2c(=O)n(-c3ccc4c(c3)CN(C)CC4)c(C)nc12 [Example 3006, 1-(3-chlorophenyl)-N-((1,4-dimethyl-1H-pyrazol-3-yl)methyl)-5-methyl-6-(2-methyl-1,2,3,4-tetrahydroisoquinolin-7-yl)-7-oxo-6,7-dihydro-1H-pyrazolo[4,3-d]pyrimidine-3-carboxamide] | 1000 to 3000 | 10 to 100
Cc1nc2c(CNS(=O)(=O)C3CC3)nn(-c3cccc(Cl)c3)c2c(=O)n1-c1ccc2c(c1)CN(CCO)CC2 [Example 3007, N-[[1-(3-Chlorophenyl)-6-[2-(2-hydroxyethyl)-3,4-dihydro-1H-isoquinolin-7-yl]-5-methyl-7-oxopyrazolo[4,3-d]pyrimidin-3-yl]methyl]cyclopropanesulfonamide] | 3000 to 10000 | 300 to 1000
Cc1nc2c(CNC(=O)C3CC3)nn(-c3cccc(Cl)c3)c2c(=O)n1-c1ccc2c(c1)CN(CCO)CC2 [Example 3008, N-((1-(3-chlorophenyl)-6-(2-(2-hydroxyethyl)-1,2,3,4-tetrahydroisoquinolin-7-yl)-5-methyl-7-oxo-6,7-dihydro-1H-pyrazolo[4,3-d]pyrimidin-3-yl)methyl)cyclopropanecarboxamide] | 3000 to 10000 | 300 to 1000
Cc1cn(C)nc1C(=O)NCc1nn(-c2cccc(Cl)c2)c2c(=O)n(-c3ccc4c(c3)CN(CCO)CC4)c(C)nc12 [Example 3009, N-[[1-(3-Chlorophenyl)-6-[2-(2-hydroxyethyl)-3,4-dihydro-1H-isoquinolin-7-yl]-5-methyl-7-oxopyrazolo[4,3-d]pyrimidin-3-yl]methyl]-1,4-dimethylpyrazole-3-carboxamide] | 3000 to 10000 | 300 to 1000
Cc1ccncc1C(=O)NCc1nn(-c2cccc(Cl)c2)c2c(=O)n(-c3ccc4c(c3)CN(CCO)CC4)c(C)nc12 [Example 3010, N-((1-(3-chlorophenyl)-6-(2-(2-hydroxyethyl)-1,2,3,4-tetrahydroisoquinolin-7-yl)-5-methyl-7-oxo-6,7-dihydro-1H-pyrazolo[4,3-d]pyrimidin-3-yl)methyl)-4-methylnicotinamide] | 3000 to 10000 | 300 to 1000
Cc1ccncc1CNC(=O)c1nn(-c2cccc(Cl)c2)c2c(=O)n(-c3ccc4c(c3)CN(CCO)CC4)c(C)nc12 [Example 3011, 1-(3-chlorophenyl)-6-(2-(2-hydroxyethyl)-1,2,3,4-tetrahydroisoquinolin-7-yl)-5-methyl-N-((4-methylpyridin-3-yl)methyl)-7-oxo-6,7-dihydro-1H-pyrazolo[4,3-d]pyrimidine-3-carboxamide] | 10000 to 40000 | 10 to 100
Cc1nc2c(C#N)nn(-c3cccc(Cl)c3)c2c(=O)n1-c1ccc2c(c1)CN(CCO)CC2 [Example 3012, 1-(3-chlorophenyl)-6-(2-(2-hydroxyethyl)-1,2,3,4-tetrahydroisoquinolin-7-yl)-5-methyl-7-oxo-6,7-dihydro-1H-pyrazolo[4,3-d]pyrimidine-3-carbonitrile] | 1000 to 3000 | 100 to 300
N#Cc1nn(-c2cccc(Cl)c2)c2c(=O)n(-c3ccc4c(c3)CN(CCO)CC4)cnc12 [Example 3013, 1-(3-chlorophenyl)-6-(2-(2-hydroxyethyl)-1,2,3,4-tetrahydroisoquinolin-7-yl)-7-oxo-6,7-dihydro-1H-pyrazolo[4,3-d]pyrimidine-3-carbonitrile] | 300 to 1000 | 100 to 300
Cc1nc2c(C(=O)NCC3CC3)nn(-c3cccc(Cl)c3)c2c(=O)n1-c1ccc2c(c1)C(=O)N(C)CC2 [Example 3014, 1-(3-chlorophenyl)-N-(cyclopropylmethyl)-5-methyl-6-(2-methyl-1-oxo-1,2,3,4-tetrahydroisoquinolin-7-yl)-7-oxo-6,7-dihydro-1H-pyrazolo[4,3-d]pyrimidine-3-carboxamide] | > 40000 | 100 to 300
Cc1cc(CNC(=O)c2nn(-c3cccc(Cl)c3)c3c(=O)n(-c4ccc5c(c4)C(=O)N(CCO)CC5)c(C)nc23)nn1C [Example 3015, 1-(3-chlorophenyl)-N-((1,5-dimethyl-1H-pyrazol-3-yl)methyl)-6-(2-(2-hydroxyethyl)-1-oxo-1,2,3,4-tetrahydroisoquinolin-7-yl)-5-methyl-7-oxo-6,7-dihydro-1H-pyrazolo[4,3-d]pyrimidine-3-carboxamide] | > 40000 | 10 to 100
Cc1nc2c(C(=O)NCC3CC3)nn(-c3cccc(Cl)c3)c2c(=O)n1-c1ccc2c(c1)C(=O)N(CCO)CC2 [Example 3016, 1-(3-chlorophenyl)-N-(cyclopropylmethyl)-6-(2-(2-hydroxyethyl)-1-oxo-1,2,3,4-tetrahydroisoquinolin-7-yl)-5-methyl-7-oxo-6,7-dihydro-1H-pyrazolo[4,3-d]pyrimidine-3-carboxamide] | > 40000 | 100 to 300
